In US8846012B2, “Melanin production inhibitor” (Pola Chemical Industries Inc., priority 2008, dated 2014):
In brackets after ≈: the same amount, converted by molar mass. Where two headings read alike, the source gives them in different places.

How the values were obtained:
normal human melanocytes = experiment: Melanin production inhibition test using cultured normal human melanocytes (14C-thiouracil incorporation); format: cell-based; conditions: for activity at 15 µM: treatment concentration 15 μM; for activity at 20 µM: treatment concentration 20 μM; for activity at 2 µM: addition amount 2.0 μM
Experimental: The inhibitory effect on melanin production of the melanin production inhibitor of the present invention can be measured using thiouracil which is incorporated specifically into cells in a melanin synthesis process in the cells. For example, the amount of melanin production can be measured by measuring an amount of thiouracil incorporated into cells by measuring an amount of radiation with radiolabeled thiouracil.
The inhibitory effect on melanin production of Compound 1 was evaluated using 2-thiouracil (^14C-labeled 2-thiouracil was used in this test) which is incorporated specifically into melanin in an intracellular melanin synthesis process. Complete medium for culture of melanocytes (manufactured by Kurabo Industries Ltd.) was added to 15 wells in a 24-well plate in an amount of 2 mL per well, and normal human melanocytes (manufactured by Kurabo Industries Ltd.) were seeded into the wells at a concentration of 1.5×10^4 cells/cm^2. The cells were cultured in a 5% carbon dioxide atmosphere at 37° C. for 24 hours. Thereafter, the medium in all the wells was exchanged under the following conditions: fresh complete medium for culture of melanocytes (control) was used in three wells; each of complete medium for culture of melanocytes, which including Compound 1 at concentrations of 1.0 μM, 2.0 μM, and 4.0 μM, was used in a total of nine wells including three wells for each concentration; and complete medium for culture of melanocytes, each of which including arbutin (positive control) known as a melanin production inhibitor at a concentration of 0.5 mM (500 μM), was used in the other three wells. Further, 2-[2-^14C]thiouracil (^14C-labeled thiouracil) was added to each of these 15 wells at 0.25×10^−6 Ci (curie). Then, the cells were cultured for further 3 days under the same conditions as the above. After the completion of culture, the culture medium was removed from the wells, and the cells were washed with phosphate buffered physiological saline (PBS) and then separated from the bottoms of the wells with medium including trypsin and EDTA to prepare cell suspensions, followed by centrifugation to collect the cells. The number of the cells was counted using a hemocytometer. Thereafter, the amounts of ^14C-thiouracil in the cells collected from each well (0.25×10^−6 Ci) were measured using a liquid scintillation counter (ALOKA CO., LTD.). The percentages of an amount of radioactivity in the cells cultured in the medium including the test substances with respect to an amount of radioactivity in the cells collected from the well of the control were calculated as amounts of melanin (%). That is, as the amount of radioactivity incorporated into the cells is smaller, the amount of melanin is evaluated to be smaller, i.e., the melanin inhibition effect of the component added is evaluated to be larger.
Inhibitory effects on melanin production of Compounds 2 to 39 (however, the effects of Compound 9 and 15 were not measured) were examined in the same procedure as in Test Example 1.
These were examined in the same procedure as in Test Example 1.
Further, the results of melanin production inhibition by treatment with the respective test compounds, determined in the same procedure as in Test Example 1, are also shown in the table.

[1] = tested on: Trichopyton mentagrophytes (ATCC18748); experiment: Measurement of antimycotic activity (Alamar Blue growth inhibition of dermatophytes); format: cell-based; conditions: for MIC80: read-out: MIC80 Concentration; for growth inhibitory effect on Trichopyton mentagrophytes (in words): added at a concentration of 100 μg/mL; for inhibition at 0.1563 µg/mL / inhibition at 0.3125 µg/mL / inhibition at 0.625 µg/mL / inhibition at 1.25 µg/mL / inhibition at 2.5 µg/mL / inhibition at 5 µg/mL / inhibition at 10 µg/mL / inhibition at 100 µg/mL: read-out: Growth inhibition rate
Experimental: 10.4 g of RPMI1640 (manufactured by SAFC Biosciences) were dissolved in 900 mL of distilled water, and 34.53 g of a 0.165 M MOPS buffer (manufactured by DOJINDO LABORATORIES) were added and dissolved by stirring.
Dermatophytes (Trichopyton mentagrophytes (ATCC18748)) were inoculated into a 1/10 Sabouraud Dextrose agar medium (manufactured by DIFCO) and cultured at 28° C. for 14 days, and then a conidial suspension was prepared using 0.1% Tween80-including physiological saline. The suspension was filtered through gauze, and the number of the conidia was counted using a hemocytometer and then adjusted to 2.5×10^5/mL with the RPMI1640 medium. The resultant suspension was used as an inoculum.
Compound 5 and clotrimazole were diluted with the RPMI1640 medium to prepare 0.3125, 0.625, 1.25, 2.5, 5, 10, 20, and 200 μg/mL diluted solutions. The diluted solutions having different concentrations were dispensed into a 96-well flat-bottom microplate in an amount of 100 μL per well, and 80 μL of the inoculum and 20 μL of an Alamar Blue solution (manufactured by Nalgene) were further added thereto. Further, 80 μL of the inoculum and 20 μL of the Alamar Blue solution were added to 100 μL of the RPMI1640 medium in growth control wells, and 20 μL of the Alamar Blue solution was added to 180 μL of the RPMI1640 medium in negative control wells. The microplate was placed in a chamber in which the humidity was kept constant, and culture was started at 27° C., and the cells were observed every 24 hours. 120 hours from beginning of culture, i.e., when the growth control became obviously red (reduced form), absorbance measurement at 570 nm was performed using a microplate reader (SPECTRAMAX 250, manufactured by Molecular Device).
The test compounds were tested at the respective concentrations in triplicate. The growth inhibition rate (%) of each of the test compound-added groups was determined by the following equation based on a value calculated by subtracting an average absorbance value of the negative control from an average absorbance value of the growth control and the test compound-added wells. Further, […] (minimum inhibitory concentration; the minimum concentration at which the growth inhibition rate is 80% or more) was calculated from the growth inhibition rate of each test compound. Growth inhibition rate (%)=[1−(average absorbance value in test compound-added wells-average absorbance value of negative control)/(average absorbance value of growth control-average absorbance value of negative control)]×100
Compound 1, Compounds 3 to 6, Compound 40, Compound 41, triphenylmethylamine, triphenylmethanol, triphenylmethane, aminodiphenylmethane, and clotrimazole were diluted with the RPMI1640 medium to prepare 0.3125, 0.625, 1.25, 2.5, 5, 10, 20, and 200 μg/mL diluted solutions. The diluted solutions having different concentrations were dispensed into a 96-well flat-bottom microplate in an amount of 100 μl, per well, and 80 μL of the inoculum and 20 μl, of an Alamar Blue solution (manufactured by Nalgene) were further added thereto. Further, 80 μl, of the inoculum and 20 μl, of the Alamar Blue solution were added to 100 μL of the RPMI1640 medium in growth control wells, and 20 μL of the Alamar Blue solution was added to 180 μL of the RPMI1640 medium in negative control wells. The microplate was placed in a chamber in which the humidity was kept constant, and then culture was started at 27° C., and the cells were observed every 24 hours. 120 hours from beginning of culture, i.e., when the growth control became obviously red (reduced form), absorbance measurement at 570 nm was performed using a microplate reader (SPECTRAMAX 250, manufactured by Molecular Device).
The test compounds were tested at the respective concentrations in triplicate. […]

[2] = Homo sapiens, Melanocyte, Table 7, read-out: Amount of melanin
[3] = minimum concentration at which the growth inhibition rate is 80% or more
[4] = Homo sapiens, Melanocyte, Table 7, treatment concentration 4 μM, read-out: Amount of melanin

SMILES: OC(c1ccccc1)(c1ccccc1)c1ccccc1 [Triphenylmethanol]
- activity at 7.5 µM (normal human melanocytes; Homo sapiens, Melanocyte, Table 3, addition amount 7.5 μM, control = 100%): 41.3 ± 2.8%
- activity at 15 µM (normal human melanocytes; [2]): 31.6 ± 2.39%
- MIC80 Concentration [1, 3]: 100.0000 µg/mL (≈ 384 µM)
- MIC80 [1, 3]: 100 µg/mL (≈ 384 µM)

SMILES: NC(c1ccccc1)(c1ccccc1)c1ccccc1 [Triphenylmethylamine]
- activity at 12.5 µM (normal human melanocytes; Homo sapiens, Melanocyte, Table 3, addition amount 12.5 μM, control = 100%): 57.3 ± 1.6%
- activity at 20 µM (normal human melanocytes; [2]): 23 ± 2.41%
- growth inhibitory effect on Trichopyton mentagrophytes (in words) [1]: no growth inhibitory effect
- MIC80 [1, 3]: > 100 µg/mL

SMILES: c1ccc(C(c2ccccc2)(c2ccccc2)N2CCCCC2)cc1 [Compound 5, 1-(triphenylmethyl)piperidine]
- activity at 1.5 µM (normal human melanocytes; Homo sapiens, Melanocyte, Table 2, addition amount 1.5 μM, control = 100%): 37.7 ± 0.8%
- activity at 4 µM (normal human melanocytes; [4]): 16.8 ± 0.96%
- inhibition at 0.1563 µg/mL ([1]; 120 h): -4.5%
- inhibition at 0.3125 µg/mL ([1]; 120 h): 8%
- inhibition at 0.625 µg/mL ([1]; 120 h): -2.7%
- inhibition at 1.25 µg/mL ([1]; 120 h): 3.1%
- inhibition at 2.5 µg/mL ([1]; 120 h): -4.5%
- inhibition at 5 µg/mL ([1]; 120 h): -17.5%
- inhibition at 10 µg/mL ([1]; 120 h): -14.4%
- inhibition at 100 µg/mL ([1]; 120 h): 13.2%
- MIC80 [1]: > 100 µg/mL

SMILES: c1ccc(C(c2ccccc2)(c2ccccc2)n2ccnc2)cc1 [Compound 1, 1-(triphenylmethyl)imidazole]
- inhibitory effect of melanin production relative to that of arbutin (normal human melanocytes; 1.0 μM Compound 1 compared with 0.5 mM arbutin): ≥ 100 times
- activity at 1 µM (normal human melanocytes; Homo sapiens, Melanocyte, addition amount 1.0 μM, control = 100%, mean ± SD of three samples): 63.8 ± 3.6%
- activity at 2 µM (normal human melanocytes; Homo sapiens, Melanocyte, control = 100%, mean ± SD of three samples): 37 ± 5.3%
- activity at 4 µM (normal human melanocytes; Homo sapiens, Melanocyte, addition amount 4.0 μM, control = 100%, mean ± SD of three samples): 29.2 ± 2.9%
- activity at 4 µM (normal human melanocytes; [4]): 29.5 ± 2.5%
- MIC80 [1, 3]: 0.625 µg/mL (≈ 2.01 µM)

SMILES: NC(c1ccccc1)c1ccccc1 [Aminodiphenylmethane]
- activity at 40 µM (normal human melanocytes; Homo sapiens, Melanocyte, Table 3, addition amount 40 μM, control = 100%): 36.6 ± 12.8%
- activity at 50 µM (normal human melanocytes; Homo sapiens, Melanocyte, Table 7, treatment concentration 50 μM, read-out: Amount of melanin): 28.8 ± 2.03%
- growth inhibitory effect on Trichopyton mentagrophytes (in words) [1]: no growth inhibitory effect
- MIC80 [1, 3]: > 100 µg/mL

SMILES: c1ccc(C(c2ccccc2)(c2ccncc2)n2ccnc2)cc1 [Compound 40, 1-[(diphenylpyridyl)methyl]imidazole]
- activity at 20 µM (normal human melanocytes; [2]): 44.7 ± 4.2%
- MIC80 [1, 3]: 10 µg/mL (≈ 32.1 µM)

SMILES: c1ccc(C(c2ccccc2)(c2ccccc2)N2CCCC2)cc1 [Compound 6, 1-(triphenylmethyl)pyrrolidine]
- activity at 2 µM (normal human melanocytes; Homo sapiens, Melanocyte, Table 2, control = 100%): 32.6 ± 4.1%
- activity at 4 µM (normal human melanocytes; [4]): 17.2 ± 0.8%
- growth inhibitory effect on Trichopyton mentagrophytes (in words) [1]: no growth inhibitory effect
- MIC80 [1]: > 100 µg/mL

SMILES: Cc1ccc(C(O)c2ccc(C)cc2)cc1 [Compound 14, [bis(4-methylphenyl)]methanol]
- activity at 25 µM (normal human melanocytes; Homo sapiens, Melanocyte, Table 2, addition amount 25 μM, control = 100%): 44.6 ± 5.6%
- activity at 40 µM (normal human melanocytes; Homo sapiens, Melanocyte, Table 7, treatment concentration 40 μM, read-out: Amount of melanin): 37.9 ± 1.39%
- MIC80 Concentration [1, 3]: 100.0000 µg/mL (≈ 471 µM)
- MIC80 [1, 3]: 100 µg/mL (≈ 471 µM)

SMILES: Clc1ccccc1C(c1ccccc1)(c1ccccc1)n1ccnc1 [Clotrimazole, clotrimazole, reference compound]
- activity at 2.5 µM (normal human melanocytes; Homo sapiens, Melanocyte, Table 7, treatment concentration 2.5 μM, read-out: Amount of melanin): 23.2%
- Amount of melanin (normal human melanocytes; Table 7, treatment concentration 2.5 μM): 23.2 ± 2.03 %/control
- inhibition at 0.1563 µg/mL ([1]; concentration 0.1563 μg/mL, 120 hours): 27%
- inhibition at 0.3125 µg/mL ([1]; concentration 0.3125 μg/mL, 120 hours): 53%
- inhibition at 0.625 µg/mL ([1]; concentration 0.6250 μg/mL, 120 hours): 82.5%
- inhibition at 1.25 µg/mL ([1]; concentration 1.2500 μg/mL, 120 hours): 92.2%
- inhibition at 2.5 µg/mL ([1]; concentration 2.5000 μg/mL, 120 hours): 93.4%
- inhibition at 5 µg/mL ([1]; concentration 5.0000 μg/mL, 120 hours): 85.4%
- inhibition at 10 µg/mL ([1]; concentration 10.0000 μg/mL, 120 hours): 92.2%
- inhibition at 100 µg/mL ([1]; concentration 100.0000 μg/mL, 120 hours): 88.9%
- MIC80 [1, 3]: 0.625 µg/mL (≈ 1.81 µM)

SMILES: c1ccc(C(c2ccccc2)c2ccccc2)cc1 [Triphenylmethane]
- activity at 15 µM (normal human melanocytes; [2]): 32.2 ± 1.82%
- activity at 10 µM (normal human melanocytes; Homo sapiens, Melanocyte, Table 3, addition amount 10 μM, control = 100%): 42.3 ± 1.4%
- growth inhibitory effect on Trichopyton mentagrophytes (in words) [1]: no growth inhibitory effect
- MIC80 [1]: > 100 µg/mL

SMILES: Cc1ccc(C(c2ccc(C)cc2)n2ccnc2)cc1 [Compound 41]
- activity at 15 µM (normal human melanocytes; [2]): 34.1 ± 2.58%
- MIC80 [1, 3]: 5 µg/mL (≈ 19.1 µM)
